≈ marks a conversion by molar mass, not a printed value.
What was measured:
S. aureus ATCC 13709 = test: MIC, S. aureus ATCC 13709; format: cell-based; conditions: Alamar Blue read after overnight incubation at 35° C.; for MIC: Staphylococcus aureus, ATCC13709, S. aureus, read-out: MIC Sa; for MIC Sa: S. aureus
E. coli ATCC 25922 = test: MIC, E. coli ATCC 25922; format: cell-based; conditions: Alamar Blue read after overnight incubation at 35° C.; for MIC: Escherichia coli, ATCC25922, E. coli, read-out: MIC Ec; for MIC Ec: E. coli

| Structure (SMILES) | MIC (S. aureus ATCC 13709) [µg/mL] | MIC (E. coli ATCC 25922) [µg/mL] | MIC Sa (S. aureus ATCC 13709) [µg/mL] | MIC Ec (E. coli ATCC 25922) [µg/mL] |
| --- | --- | --- | --- | --- |
| CNc1cccc2c1[nH]c1nc(Sc3cnc4cccnc4c3)nc(N3CC4CCCNC4C3)c12 (stereo not shown) [Compound 1.28] | 4 (≈ 8.29 µM) | 16 (≈ 33.2 µM) | – | – |
| CNc1cccc2c1[nH]c1nc(Sc3cnc4cccnc4c3)nc(N3CC4C(C3)C4(N)CO)c12 (stereo not shown) [Compound 1.30] | 16 (≈ 33 µM) | > 64 | – | – |
| CNc1cccc2c1[nH]c1nc(Sc3cncc(S(=O)(=O)NC)c3)nc(N3CC4C(N)C4C3)c12 (stereo not shown) [Compound 1.36] | 2 (≈ 4.03 µM) | 4 (≈ 8.05 µM) | – | – |
| CNc1cccc2c1[nH]c1nc(Sc3cnc4ccc[n+]([O-])c4c3)nc(N3CCC4(CC4N)C3)c12 (stereo not shown) [Compound 1.39] | – | – | ≤0.5 | 1 (≈ 2.06 µM) |
| CNc1cccc2c1[nH]c1nc(Sc3cncc(S(N)(=O)=O)c3)nc(N3CC4C(N)C4C3)c12 (stereo not shown) [Compound 1.41] | 4 (≈ 8.29 µM) | 8 (≈ 16.6 µM) | – | – |
| CNc1cccc2c1[nH]c1nc(Sc3cncc(S(=O)(=O)NCCO)c3)nc(N3CC4C(N)C4C3)c12 (stereo not shown) [Compound 1.42] | 8 (≈ 15.2 µM) | 32 (≈ 60.8 µM) | – | – |
| CNc1cccc2c1[nH]c1nc(Sc3cncnc3)nc(N3CC4C(N)C4C3)c12 (stereo not shown) [Compound 1.43] | 2 (≈ 4.94 µM) | 8 (≈ 19.8 µM) | – | – |
| CNc1cccc2c1[nH]c1nc(Sc3cnc4cccnc4c3)nc(N3CCNCC3)c12 [Compound 1.46] | 2 (≈ 4.52 µM) | 4 (≈ 9.04 µM) | – | – |
| CNc1cccc2c1[nH]c1nc(Sc3cnc4ccc[n+]([O-])c4c3)nc(N3CC4C(N)C4C3)c12 (stereo not shown) [Compound 1.49] | – | – | ≤0.5 | ≤0.5 |
| CNc1cccc2c1[nH]c1nc(Sc3cnc4cccnc4c3)nc(N3CCC4(CCNCC4)C3)c12 [Compound 1.56] | 4 (≈ 8.05 µM) | 32 (≈ 64.4 µM) | – | – |
| CNc1cccc2c1[nH]c1nc(Sc3cnc4ccc[n+]([O-])c4c3)nc(N3CC4CC3CN4)c12 (stereo not shown) [Compound 1.57] | > 32 | > 32 | – | – |
| CNc1cccc2c1[nH]c1nc(Sc3cnc4cccnc4c3)nc(N3CCC(C)(N)C3)c12 (stereo not shown) [Compound 1.59] | 1 (≈ 2.19 µM) | 4 (≈ 8.76 µM) | – | – |
| CNc1cccc2c1[nH]c1nc(Sc3cnc4cccnc4c3)nc(N3C[C@H](N)C[C@H]3C)c12 [Compound 1.61] | 8 (≈ 17.5 µM) | 64 (≈ 140 µM) | – | – |
| CNc1cc(F)cc2c1[nH]c1nc(Sc3cnc4ccc[n+]([O-])c4c3)nc(N3CCC4(CC4N)C3)c12 (stereo not shown) [Compound 1.65] | – | – | ≤0.5 | ≤0.5 |
| CNc1cccc2c1[nH]c1nc(Sc3cnc4ccc[n+]([O-])c4c3)nc(N3CC4C(N)C4C3)c12 (stereo not shown) [Compound 1.66] | – | – | ≤0.13 | ≤0.5 |
| CNc1cccc2c1[nH]c1nc(Sc3cnc4cccnc4c3)nc(N3C[C@H](N)C[C@@H]3CO)c12 [Compound 1.68] | 16 (≈ 33.9 µM) | 32 (≈ 67.7 µM) | – | – |
| CNc1cccc2c1[nH]c1nc(Sc3cnc4cccnc4c3)nc(N3CCC(C(O)c4cccs4)CC3)c12 (stereo not shown) [Compound 1.70] | 1 (≈ 1.81 µM) | > 32 | – | – |
| CNc1cccc2c1[nH]c1nc(Sc3cnc4ccc[n+]([O-])c4c3)nc(N3CC4C(N)C4C3)c12 (stereo not shown) [Compound 1.71] | – | – | ≤0.5 | ≤0.5 |
| CNc1cccc2c1[nH]c1nc(Sc3ccc4ccc(C(=O)O)nc4c3)nc(N3CC4C(N)C4C3)c12 (stereo not shown) [Compound 1.74] | 4 (≈ 8.04 µM) | > 64 | – | – |
| COc1cccc2c1[nH]c1nc(Sc3cnc4nccnc4c3)nc(N3CC4C(N)C4C3)c12 (stereo not shown) [Compound 1.76] | 1 (≈ 2.19 µM) | > 64 | – | – |
| COc1cccc2c1[nH]c1nc(Sc3cnc4ccc[n+]([O-])c4c3)nc(N3CC(N)C3)c12 [Compound 1.77] | 2 (≈ 4.49 µM) | > 64 | – | – |
| CNNc1cc(F)cc2c1[nH]c1nc(Oc3cnc(C)nc3)nc(N3CC4C(N)C4C3)c12 (stereo not shown) [Compound 2.1] | – | – | ≤0.5 | >16 |
| CCc1cc(F)cc2c1[nH]c1nc(Oc3cncnc3)nc(N3CC4C(N)C4C3)c12 (stereo not shown) [Compound 2.2] | – | – | 2 (≈ 4.93 µM) | 4 (≈ 9.87 µM) |
| CCc1cc(F)cc2c1[nH]c1nc(Oc3cnc(C)nc3)nc(N3CC(N)C4(CC4)C3)c12 (stereo not shown) [Compound 2.3] | – | – | 1 (≈ 2.31 µM) | 16 (≈ 36.9 µM) |
| CCc1cc(F)cc2c1[nH]c1nc(Oc3cnc(C)nc3)nc(N3CC4CC(N)C4C3)c12 (stereo not shown) [Compound 2.4] | – | – | ≤0.5 | 1 (≈ 2.31 µM) |
| CCc1cc(F)cc2c1[nH]c1nc(Oc3cncnc3)nc(N3CC4CC(N)C4C3)c12 (stereo not shown) [Compound 2.5] | – | – | ≤0.5 | 2 (≈ 4.77 µM) |
| Cc1cc(F)cc2c1[nH]c1nc(Oc3cncnc3)nc(N3CC4C(N)C4C3)c12 (stereo not shown) [Compound 2.7] | – | – | 4 (≈ 10.2 µM) | >16 |
| Nc1cccc2c1[nH]c1nc(Oc3cnc4cccnc4c3)nc(N3CC4C(N)C4C3)c12 (stereo not shown) [Compound 2.8] | – | – | 16 (≈ 37.7 µM) | >64 |

Results, then the compound that gave them:

| MIC (S. aureus ATCC 13709) [µg/mL] | MIC (E. coli ATCC 25922) [µg/mL] | MIC Sa (S. aureus ATCC 13709) [µg/mL] | MIC Ec (E. coli ATCC 25922) [µg/mL] | Structure (SMILES) |
| --- | --- | --- | --- | --- |
| ≤ 0.5 | 1 (≈ 2.13 µM) | – | – | CNc1cccc2c1[nH]c1nc(Sc3cnc4cccnc4c3)nc(N3CC(N)C4(CC4)C3)c12 (stereo not shown) [Compound 1.27] |
| 1 (≈ 2.33 µM) | > 64 | – | – | CNc1cccc2c1[nH]c1nc(Sc3cnc4cccnc4c3)nc(N3CC(N)C3)c12 [Compound 1.29] |
| ≤ 0.5 | ≤ 0.5 | – | – | CNc1cccc2c1[nH]c1nc(Sc3cc4ncccc4[n+]([O-])c3)nc(N3C[C@@H]4[C@@H](N)[C@@H]4C3)c12 [Compound 1.31] |
| ≤ 0.5 | 4 (≈ 8.5 µM) | – | – | CNc1cccc2c1[nH]c1nc(Sc3cnc4ccc[n+]([O-])c4c3)nc(N3CC4CNC4C3)c12 (stereo not shown) [Compound 1.32] |
| ≤ 0.5 | 4 (≈ 8.25 µM) | – | – | CNc1cccc2c1[nH]c1nc(Sc3cnc4ccc[n+]([O-])c4c3)nc(N3CC(C4(N)CC4)C3)c12 [Compound 1.33] |
| 1 (≈ 2.12 µM) | 4 (≈ 8.46 µM) | – | – | CNc1cccc2c1[nH]c1nc(Sc3cnc4ccc[n+]([O-])c4c3)nc(N3CCC[C@@H](N)C3)c12 [Compound 1.34] |
| ≤ 0.5 | 2 (≈ 4.11 µM) | – | – | CNc1cccc2c1[nH]c1nc(Sc3cnc4ccc[n+]([O-])c4c3)nc(N3CC[C@@H](C)[C@@H](N)C3)c12 [Compound 1.35] |
| 1 (≈ 2.19 µM) | 4 (≈ 8.76 µM) | – | – | CNc1cccc2c1[nH]c1nc(Sc3cnc4cccnc4c3)nc(N3CCC[C@@H](N)C3)c12 [Compound 1.37] |
| ≤ 0.5 | 2 (≈ 4.13 µM) | – | – | CNc1cccc2c1[nH]c1nc(Sc3cnc4ccc[n+]([O-])c4c3)nc(N3CCC4(CC4N)C3)c12 (stereo not shown) [Compound 1.38] |
| ≤ 0.5 | 1 (≈ 2.06 µM) | – | – | CNc1cccc2c1[nH]c1nc(Sc3cnc4ccc[n+]([O-])c4c3)nc(N3CC(N)C4(CC4)C3)c12 (stereo not shown) [Compound 1.40] |
| 1 (≈ 2.39 µM) | 2 (≈ 4.78 µM) | – | – | CNc1cccc2c1[nH]c1nc(Sc3cncnc3)nc(N3CC(N)C4(CC4)C3)c12 (stereo not shown) [Compound 1.44] |
| 1 (≈ 2.12 µM) | 4 (≈ 8.5 µM) | – | – | CNc1cccc2c1[nH]c1nc(Sc3cnc4cccnc4c3)nc(N3CCCCC(N)C3)c12 (stereo not shown) [Compound 1.45] |
| ≤ 0.5 | 2 (≈ 4.27 µM) | – | – | CNc1cccc2c1[nH]c1nc(Sc3cnc4cccnc4c3)nc(N3CC4CNC(C4)C3)c12 (stereo not shown) [Compound 1.47] |
| ≤ 0.5 | 2 (≈ 4.38 µM) | – | – | CNc1cccc2c1[nH]c1nc(Sc3cnc4cccnc4c3)nc(N3CCC(CN)C3)c12 (stereo not shown) [Compound 1.48] |
| ≤ 0.5 | ≤ 0.5 | – | – | CNc1cc(F)cc2c1[nH]c1nc(Sc3cnc4ccc[n+]([O-])c4c3)nc(N3CC4C(N)C4C3)c12 (stereo not shown) [Compound 1.50] |
| ≤ 0.5 | ≤ 0.5 | – | – | CNc1cc(F)cc2c1[nH]c1nc(Sc3cnc4cccnc4c3)nc(N3CC4C(N)C4C3)c12 (stereo not shown) [Compound 1.51] |

| MIC (S. aureus ATCC 13709) [µg/mL] | MIC (E. coli ATCC 25922) [µg/mL] | MIC Sa (S. aureus ATCC 13709) [µg/mL] | MIC Ec (E. coli ATCC 25922) [µg/mL] | Structure (SMILES) |
| --- | --- | --- | --- | --- |
| 1 (≈ 1.85 µM) | 16 (≈ 29.5 µM) | – | – | CNc1cccc2c1[nH]c1nc(Sc3cnc4ccc[n+]([O-])c4c3)nc(N3CC4C(C3)C4NC(=O)[C@H](C)N)c12 (stereo partly shown) [Compound 1.52] |
| ≤ 0.5 | 8 (≈ 17.5 µM) | – | – | CNc1cccc2c1[nH]c1nc(Sc3cnc4cccnc4c3)nc(N3CCC(CO)C3)c12 (stereo not shown) [Compound 1.53] |
| ≤ 0.5 | > 64 | – | – | CNc1cccc2c1[nH]c1nc(Sc3cnc4cccnc4c3)nc(N3CCN(c4cnccn4)CC3)c12 [Compound 1.54] |
| 1 (≈ 2.13 µM) | 8 (≈ 17.1 µM) | – | – | CNc1cccc2c1[nH]c1nc(Sc3cnc4cccnc4c3)nc(N3CC4CNCC4C3)c12 (stereo not shown) [Compound 1.55] |
| ≤ 0.5 | 8 (≈ 17.1 µM) | – | – | CNc1ccc(C)c2c1[nH]c1nc(Sc3cnc4cccnc4c3)nc(N3CC4C(N)C4C3)c12 (stereo not shown) [Compound 1.58] |
| 0.5 (≈ 1.1 µM) | 2 (≈ 4.38 µM) | – | – | CNc1cccc2c1[nH]c1nc(Sc3cnc4cccnc4c3)nc(N3C[C@@H](N)C[C@H]3C)c12 [Compound 1.60] |
| ≤ 0.5 | ≤ 0.5 | – | – | CNc1cc(F)cc2c1[nH]c1nc(Sc3cnc4cccnc4c3)nc(N3CC(N)C4(CC4)C3)c12 (stereo not shown) [Compound 1.62] |
| ≤ 0.5 | ≤ 0.5 | – | – | CNc1cc(F)cc2c1[nH]c1nc(Sc3cnc4ccc[n+]([O-])c4c3)nc(N3CC(N)C4(CC4)C3)c12 (stereo not shown) [Compound 1.63] |
| ≤ 0.5 | ≤ 0.5 | – | – | CNc1cc(F)cc2c1[nH]c1nc(Sc3cnc4ccc[n+]([O-])c4c3)nc(N3CCC4(CC4N)C3)c12 (stereo not shown) [Compound 1.64] |
| ≤ 0.5 | > 64 | – | – | CNc1cccc2c1[nH]c1nc(Sc3cnc4cccnc4c3)nc(N3CCN(C(C)=O)CC3)c12 [Compound 1.67] |
| ≤ 0.5 | 8 (≈ 14.8 µM) | – | – | CNc1cccc2c1[nH]c1nc(Sc3cnc4cccnc4c3)nc(N3CCN(C(=O)C4CCCO4)CC3)c12 (stereo not shown) [Compound 1.69] |
| ≤ 0.5 | 1 (≈ 2.01 µM) | – | – | CNc1ccc(C)c2c1[nH]c1nc(Sc3cnc4ccc[n+]([O-])c4c3)nc(N3CC(N)C4(CC4)C3)c12 (stereo not shown) [Compound 1.72] |
| ≤ 0.5 | 8 (≈ 16.5 µM) | – | – | CNc1ccc(C)c2c1[nH]c1nc(Sc3cnc4ccc[n+]([O-])c4c3)nc(N3CC4C(N)C4C3)c12 (stereo not shown) [Compound 1.73] |
| ≤ 0.5 | > 64 | – | – | COc1cccc2c1[nH]c1nc(Sc3cnc4cccnc4c3)nc(N3CC4C(N)C4C3)c12 (stereo not shown) [Compound 1.75] |
| ≤ 0.5 | 64 (≈ 139 µM) | – | – | COc1cccc2c1[nH]c1nc(Sc3cnc4ccc[n+]([O-])c4c3)nc(N3CC[C@@H](N)C3)c12 [Compound 1.78] |

Reference: US10865216B2, “Tricyclic Gyrase inhibitors” (MERCK SHARP & DOHME CORP., priority 2012, dated 2020)
